Laboratory results as given in ChEMBL document CHEMBL1201862, “PubChem BioAssay data set” (2004).
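Following 48 hours of exposure in 96-well plates, responses at five concentrations were used to interpolate endpoints linearly. GI50 = concentration required for 50% inhibition of growth.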 Calls of active or inactive are those of the source. No stated cut-off is given here; in the data, active = GI50 up to about 1.1 µM and inactive = higher.

Key:
Assay in all cases: growth of human tumour cells (NCI), 48 h
NCI-H460 = system: NCI-H460
RXF 393 = system: RXF 393
M14 = system: M14
SNB-75 = system: SNB-75
HL-60 = system: HL-60
HOP-92 = system: HOP-92
SW-620 = system: SW-620
SF-539 = system: SF-539
SK-MEL-5 = system: SK-MEL-5
UACC-62 = system: UACC-62
DU-145 = system: DU-145
SF-268 = system: SF-268
SF-295 = system: SF-295
OVCAR-3 = system: OVCAR-3
A549 = system: A549
SN12C = system: SN12C
OVCAR-8 = system: OVCAR-8
T47D = system: T47D
HCT-15 = system: HCT-15

SMILES	GI50 (NCI-H460)	GI50 (RXF 393)	GI50 (M14)	GI50 (SNB-75)	GI50 (HL-60)	GI50 (HOP-92)	GI50 (SW-620)	GI50 (SF-539)	GI50 (SK-MEL-5)	GI50 (UACC-62)	GI50 (DU-145)	GI50 (SF-268)	GI50 (SF-295)	GI50 (OVCAR-3)	GI50 (A549)	GI50 (SN12C)	GI50 (OVCAR-8)	GI50 (T47D)	GI50 (HCT-15) [µM]
O=C1c2cccc(NCCNCCO)c2C(=O)c2cccc(NCCNCCO)c21	1.55 µM (inactive)	1.59 µM (inactive)	1.81 µM (inactive)	1.03 µM (active)	1.6 µM (inactive)	0.507 µM (active)	0.714 µM (active)	0.601 µM (active)	1.69 µM (inactive)	1.81 µM (inactive)	0.612 µM (active)	0.518 µM (active)	1.79 µM (inactive)	1.57 µM (inactive)	1.56 µM (inactive)	0.782 µM (active)	0.989 µM (active)	1.69 µM (inactive)	5.28
COc1cc(C2S/C(=C/c3ccccc3)C(=O)N2c2cc(Cl)ccc2Cl)cc(OC)c1OC (configuration not stated)	> 100 µM (inactive)	39.4 µM (inactive)	19.6 µM (inactive)		31 µM (inactive)	51.2 µM (inactive)	36 µM (inactive)	17.9 µM (inactive)	35.8 µM (inactive)	31.8 µM (inactive)	35 µM (inactive)	21.6 µM (inactive)	60.3 µM (inactive)	32.3 µM (inactive)	91.8 µM (inactive)	45.9 µM (inactive)	36.3 µM (inactive)	53.7 µM (inactive)	38.3
COc1ccc(C2=Nc3c(nc(SC)[nH]c3=O)NC(c3ccccc3)C2)cc1 (configuration not stated)		20.7 µM (inactive)	25.4 µM (inactive)	17.8 µM (inactive)	18.1 µM (inactive)	46.3 µM (inactive)	44.9 µM (inactive)	19.4 µM (inactive)	16.6 µM (inactive)	> 10 µM (inactive)	25.2 µM (inactive)		27.4 µM (inactive)	27.5 µM (inactive)	24 µM (inactive)	20.9 µM (inactive)	19.4 µM (inactive)		
COC(=O)C1=C(C)NC(C)=C(C(=O)OC)C1c1cccc(N=O)c1	16 µM (inactive)	13.3 µM (inactive)	13.9 µM (inactive)		3.85 µM (inactive)	7.69 µM (inactive)	4.78 µM (inactive)	19.1 µM (inactive)	16.3 µM (inactive)	14.3 µM (inactive)	15.8 µM (inactive)	17 µM (inactive)	52.8 µM (inactive)	15.7 µM (inactive)	31.8 µM (inactive)	18.8 µM (inactive)	15 µM (inactive)	11.6 µM (inactive)	17.8
COc1ccc(-c2oc3cc(O)cc(O)c3c(=O)c2OC)cc1 [ERMANIN]	25.4 µM (inactive)		37.2 µM (inactive)		14.1 µM (inactive)	3.23 µM (inactive)	31.2 µM (inactive)		16.7 µM (inactive)	21.5 µM (inactive)	27.2 µM (inactive)	22.1 µM (inactive)	26.6 µM (inactive)	21 µM (inactive)	34.9 µM (inactive)		44.1 µM (inactive)	31 µM (inactive)	23.4
COc1ccc2[nH]c(=O)cc(C)c2c1[N+](=O)[O-]	> 100 µM (inactive)	> 10 µM (inactive)	> 100 µM (inactive)	10.5 µM (inactive)	> 100 µM (inactive)	32.4 µM (inactive)	> 100 µM (inactive)	> 100 µM (inactive)	> 100 µM (inactive)	> 100 µM (inactive)		82 µM (inactive)	> 100 µM (inactive)	> 100 µM (inactive)	> 100 µM (inactive)	> 100 µM (inactive)	> 100 µM (inactive)		> 100
